{"source": "patent US10696686B2", "about": "“Herbicidally active (alkynyl-phenyl)-substituted cyclic dione compounds and derivatives thereof” (Syngenta Limited, priority 2013, dated 2020)", "assay_type_in_all_cases": "in vivo", "key": {"[1]": {"tested_on": "Glycine max (GLXMA, soybean)", "test": "Biological Example 2 glasshouse assay (IF50 formulation, X-77), post-emergence", "conditions": "for percentage phytotoxicity score GLXMA: post-emergence, 14 or 15 DAA", "protocol": "(§1) Seeds of a variety of monocotyledonous and dicotyledonous test plants are sown in standard soil in pots. The plants are cultivated for one day (for pre-emergence) or for about 12 days (range=10-13 days) (for post-emergence) under controlled conditions in a glasshouse (warm climate species at 24/18° C., cool climate species at 20/16° C., both at day/night; 16 hours light; 65% humidity). An “instant formulation”, known as the “IF50”, containing 50 g/litre (i.e. 5% w/v) of the “technical” (i.e. unformulated) active ingredient is prepared by dissolving the active ingredient in a mixture of organic solvents and emulsifier, details of which are provided in the Table below. This IF50 is then mixed with a small, variable amount of acetone to aid dissolution, before addition of a 0.2% v/v aqueous solution of the adjuvant X-77 (which is a mixture of alkyl aryl polyoxyethylene glycols and free fatty acids in isopropanol, CAS Registry number 11097-66-8), as the aqueous diluent, to form an aqueous spray solution which contains a predetermined concentration of the active ingredient (which varies depending on the application rate of the active ingredient to the plants) and 0.2% v/v of the adjuvant X-77. This aqueous spray solution is then sprayed onto the plants, after one day's cultivation (for pre-emergence) or after about 12 days' cultivation (for post-emergence).\n(§2) The test plants are then grown on, in a glasshouse (greenhouse) under controlled conditions (at either 24/18° C. or 20/16° C. (day/night) as mentioned above; 16 hours light; 65% humidity) and are watered twice daily. Either 14 or 15 days after application of the herbicide (14 or 15 DAA) (for post-emergence), or 20 days after application of the herbicide (20 DAA) (for pre-emergence), the test plants are evaluated visually, and an assessed percentage phytotoxicity score is given for each herbicidal application on each plant species (where 100%=total damage to plant; 0%=no damage to plant). Some of the typical test plants are as follows: Cool climate crop plants: Triticum aestivum (TRZAW, winter wheat), Brassica napus (BRSNN, rape, also called oilseed rape or rapeseed), Beta vulgaris (BEAVA, sugarbeet). Warm climate crop plants: Glycine max (GLXMA, soybean). Cool climate (“cool season”) grassy monocotyledonous weeds: Alopecurus myosuroides (ALOMY), Avena fatua (AVEFA), Lolium perenne (LOLPE), Poa annua (POAAN), Bromus tectorum (BROTE). Warm climate (“warm season”) grassy monocotyledonous weeds: Setaria faberi (SETFA), SORVU (Sorghum bicolor (L.) Moench ssp. Bicolor, or Sorghum vulgare Pers.), Digitaria sanguinalis (DIGSA), Echinochloa crus-galli (ECHCG), Brachiaria plantaginea (BRAPL), Zea mays (ZEAMX, corn, maize, e.g. volunteer corn), Panicum miliaceum (PANMI)."}, "[2]": {"tested_on": "Brassica napus (BRSNN, rape)", "test": "Biological Example 2 glasshouse assay (IF50 formulation, X-77), post-emergence", "conditions": "14 or 15 DAA", "protocol": "as §1, §2"}, "[3]": {"tested_on": "Beta vulgaris (BEAVA, sugarbeet)", "test": "Biological Example 2 glasshouse assay (IF50 formulation, X-77), post-emergence", "conditions": "for percentage phytotoxicity score BEAVA: post-emergence, 14 or 15 DAA", "protocol": "as §1, §2"}, "Lolium perenne (LOLPE)": {"tested_on": "Lolium perenne (LOLPE)", "test": "Biological Example 2 glasshouse assay (IF50 formulation, X-77), post-emergence", "conditions": "14 or 15 DAA", "protocol": "as §1, §2"}, "[4]": {"tested_on": "Brachiaria plantaginea (BRAPL)", "test": "Biological Example 2 glasshouse assay (IF50 formulation, X-77), post-emergence", "conditions": "14 or 15 DAA", "protocol": "as §1, §2"}, "Setaria faberi (SETFA) [5]": {"tested_on": "Setaria faberi (SETFA)", "test": "Biological Example 2 glasshouse assay (IF50 formulation, X-77), post-emergence", "conditions": "14 or 15 DAA", "protocol": "as §1, §2"}, "[6]": {"tested_on": "SORVU (Sorghum bicolor (L.) Moench ssp. Bicolor, or Sorghum vulgare Pers.)", "test": "Biological Example 2 glasshouse assay (IF50 formulation, X-77), post-emergence", "conditions": "14 or 15 DAA", "protocol": "as §1, §2"}, "[7]": {"tested_on": "Alopecurus myosuroides (ALOMY)", "test": "Biological Example 2 glasshouse assay (IF50 formulation, X-77), post-emergence", "conditions": "14 or 15 DAA", "protocol": "as §1, §2"}, "[8]": {"tested_on": "Digitaria sanguinalis (DIGSA)", "test": "Biological Example 2 glasshouse assay (IF50 formulation, X-77), post-emergence", "conditions": "14 or 15 DAA", "protocol": "as §1, §2"}, "Avena fatua (AVEFA)": {"tested_on": "Avena fatua (AVEFA)", "test": "Biological Example 2 glasshouse assay (IF50 formulation, X-77), post-emergence", "conditions": "14 or 15 DAA", "protocol": "as §1, §2"}, "[9]": {"tested_on": "Zea mays (ZEAMX, corn, maize, e.g. volunteer corn)", "test": "Biological Example 2 glasshouse assay (IF50 formulation, X-77), post-emergence", "conditions": "14 or 15 DAA", "protocol": "as §1, §2"}, "[10]": {"tested_on": "grassy (in particular warm climate grassy) monocotyledonous weeds", "test": "Post-emergence herbicidal activity, summary statements on Biological Examples 1 to 3", "conditions": "applied at about 250 g/ha post-emergence; Biological Examples 1 and 2", "protocol": "Seeds of a variety of test plant species were sown in standard soil ** in pots. After cultivation for one day (pre-emergence) or after 8 days cultivation (post-emergence) under controlled conditions in a glasshouse (at 24/16° C., day/night; 14 hours light; 65% humidity), the plants were sprayed with an aqueous spray solution derived from the formulation of the technical active ingredient (the test herbicide) in acetone/water (50:50) solution containing 0.5% Tween 20 (polyoxyethylene sorbitan monolaurate, CAS Reg. No. 9005-64-5). The test plants were then grown on under controlled conditions in a glasshouse (at 24/16° C., day/night; 14 hours light; 65% humidity) and watered twice daily. 13 Days after application of the test herbicide, for pre- and post-emergence, the test was evaluated visually for percentage phytotoxicity to each plant (where 100%=total damage to plant; 0%=no damage to plant). Generally, each test herbicide is only tested on 1 plant per plant species for each application rate tested and for each application timing. ** The “standard soil” in Biological Example 1 is usually a “sand” or “sandy loam” type of soil.\nSeeds of a variety of monocotyledonous and dicotyledonous test plants are sown in standard soil in pots. The plants are cultivated for one day (for pre-emergence) or for about 12 days (range=10-13 days) (for post-emergence) under controlled conditions in a glasshouse (warm climate species at 24/18° C., cool climate species at 20/16° C., both at day/night; 16 hours light; 65% humidity). An “instant formulation”, known as the “IF50”, containing 50 g/litre (i.e. 5% w/v) of the “technical” (i.e. unformulated) active ingredient is prepared by dissolving the active ingredient in a mixture of organic solvents and emulsifier, details of which are provided in the Table below. […]\nThe test plants are then grown on, in a glasshouse (greenhouse) under controlled conditions (at either 24/18° C. or 20/16° C. (day/night) as mentioned above; 16 hours light; 65% humidity) and are watered twice daily. Either 14 or 15 days after application of the herbicide (14 or 15 DAA) (for post-emergence), or 20 days after application of the herbicide (20 DAA) (for pre-emergence), the test plants are evaluated visually, and an assessed percentage phytotoxicity score is given for each herbicidal application on each plant species (where 100%=total damage to plant; 0%=no damage to plant). […]"}, "[11]": {"tested_on": "Abutilon theophrasti (ABUTH)", "test": "Biological Example 1B glasshouse assay, pre-emergence application", "conditions": "250 g/ha, 13 days after application", "method_in_brief": "(§3)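 Sow in sand/sandy loam; grow 1 d (pre-emergence) or 8 d (post-emergence) at 24/16 °C, 14 h light, 65% humidity; spray aqueous dilution of acetone/water (50:50) formulation with 0.5% Tween 20; water twice daily; rate damage visually after 13 days.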"}, "[12]": {"tested_on": "Echinochloa crus-galli (ECHCG)", "test": "Biological Example 1B glasshouse assay, pre-emergence application", "conditions": "250 g/ha, 13 days after application", "method_in_brief": "as §3"}, "Setaria faberi (SETFA) [13]": {"tested_on": "Setaria faberi (SETFA)", "test": "Biological Example 1B glasshouse assay, pre-emergence application", "conditions": "250 g/ha, 13 days after application", "method_in_brief": "as §3"}, "[14]": {"tested_on": "Zea mays (ZEAMX, corn, maize, e.g. volunteer corn)", "test": "Biological Example 1B glasshouse assay, pre-emergence application", "conditions": "250 g/ha, 13 days after application", "method_in_brief": "as §3"}, "[15]": {"conditions": "e.g. when applied at 30 g/ha post-emergence, see Biological Example 2"}, "[16]": {"conditions": "125 g/ha (rate taken from row order)"}, "[17]": {"conditions": "250 g/ha (rate taken from row order)"}}, "data": [{"smiles": "C#CCC1CC(=O)C(c2c(F)cc(C#CC)cc2OC)C1=O", "note": "(centres unmarked) [Compound A8, 2-(2-fluoro-6-methoxy-4-prop-1-ynyl-phenyl)-4-prop-2-ynyl-cyclopentane-1,3-dione]", "values": [{"measurement": "phytotoxicity against soybean (in words)", "setting": "[1]; [15]", "result": "low or reasonably low phytotoxicity"}, {"measurement": "percentage phytotoxicity score GLXMA", "setting": "[1]; 125 g/ha", "result": 10, "unit": "%"}, {"measurement": "percentage phytotoxicity score GLXMA", "setting": "[1]; 250 g/ha", "result": 30, "unit": "%"}, {"measurement": "percentage phytotoxicity score BRSNN", "setting": "[2]; 125 g/ha", "result": 40, "unit": "%"}, {"measurement": "percentage phytotoxicity score BRSNN", "setting": "[2]; 250 g/ha", "result": 60, "unit": "%"}, {"measurement": "phytotoxicity against sugarbeet (in words)", "setting": "[3]; [15]", "result": "low or reasonably low phytotoxicity"}, {"measurement": "percentage phytotoxicity score BEAVA", "setting": "[3]; 125 g/ha", "result": 10, "unit": "%"}, {"measurement": "percentage phytotoxicity score BEAVA", "setting": "[3]; 250 g/ha", "result": 10, "unit": "%"}, {"measurement": "percentage phytotoxicity score LOLPE", "setting": "Lolium perenne (LOLPE); [16]", "result": 30, "unit": "%"}, {"measurement": "percentage phytotoxicity score LOLPE", "setting": "Lolium perenne (LOLPE); [17]", "result": 80, "unit": "%"}, {"measurement": "percentage phytotoxicity score BRAPL", "setting": "[4]; [16]", "result": 100, "unit": "%"}, {"measurement": "percentage phytotoxicity score BRAPL", "setting": "[4]; [17]", "result": 100, "unit": "%"}, {"measurement": "percentage phytotoxicity score SETFA", "setting": "Setaria faberi (SETFA) [5]; [16]", "result": 90, "unit": "%"}, {"measurement": "percentage phytotoxicity score SETFA", "setting": "Setaria faberi (SETFA) [5]; [17]", "result": 100, "unit": "%"}, {"measurement": "percentage phytotoxicity score SORVU", "setting": "[6]; [16]", "result": 100, "unit": "%"}, {"measurement": "percentage phytotoxicity score SORVU", "setting": "[6]; [17]", "result": 100, "unit": "%"}, {"measurement": "percentage phytotoxicity score ALOMY", "setting": "[7]; 125 g/ha", "result": 50, "unit": "%"}, {"measurement": "percentage phytotoxicity score ALOMY", "setting": "[7]; 250 g/ha", "result": 70, "unit": "%"}, {"measurement": "percentage phytotoxicity score DIGSA", "setting": "[8]; [16]", "result": 100, "unit": "%"}, {"measurement": "percentage phytotoxicity score DIGSA", "setting": "[8]; [17]", "result": 100, "unit": "%"}, {"measurement": "percentage phytotoxicity score AVEFA", "setting": "Avena fatua (AVEFA); [16]", "result": 30, "unit": "%"}, {"measurement": "percentage phytotoxicity score AVEFA", "setting": "Avena fatua (AVEFA); [17]", "result": 70, "unit": "%"}, {"measurement": "percentage phytotoxicity score ZEAMX", "setting": "[9]; 125 g/ha", "result": 100, "unit": "%"}, {"measurement": "percentage phytotoxicity score ZEAMX", "setting": "[9]; 250 g/ha", "result": 100, "unit": "%"}, {"measurement": "post-emergent herbicidal potency against grassy monocotyledonous weeds (in words)", "setting": "[10]", "result": "potent post-emergent herbicides"}, {"measurement": "Percentage phytotoxicity ABUTH", "setting": "[11]", "result": 0, "unit": "%"}, {"measurement": "Percentage phytotoxicity ECHCG", "setting": "[12]", "result": 100, "unit": "%"}, {"measurement": "Percentage phytotoxicity SETFA", "setting": "Setaria faberi (SETFA) [13]", "result": 90, "unit": "%"}, {"measurement": "Percentage phytotoxicity ZEAMX", "setting": "[14]", "result": 100, "unit": "%"}]}]}
